Results on 6 compounds are retold here after ChEMBL document CHEMBL1275355, “Molecular modeling study on potent and selective adenosine A(3) receptor agonists” (Bioorg Med Chem, 2010).

One assay deals with T1, Adenosine receptor A3 (Homo sapiens, UniProt P0DMS8).
T1 sequence (P0DMS8 whole entry): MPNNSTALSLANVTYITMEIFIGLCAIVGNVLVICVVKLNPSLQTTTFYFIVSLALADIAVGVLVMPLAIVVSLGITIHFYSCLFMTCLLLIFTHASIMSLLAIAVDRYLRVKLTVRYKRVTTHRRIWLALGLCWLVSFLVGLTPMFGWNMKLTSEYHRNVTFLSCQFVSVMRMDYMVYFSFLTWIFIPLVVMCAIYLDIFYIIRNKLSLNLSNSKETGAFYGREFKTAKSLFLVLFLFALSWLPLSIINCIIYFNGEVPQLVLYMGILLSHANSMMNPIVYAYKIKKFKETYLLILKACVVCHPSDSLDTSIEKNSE
Put plainly: Binding affinity to human adenosine A3 receptor.

The target of assay [1] is Adenosine receptors; A1 & A3 (Homo sapiens) (UniProt P30542+P0DMS8). Put plainly: Selectivity ratio of Ki for human adenosine A1 receptor to Ki for human adenosine A3 receptor.
The species named for a further assay is Homo sapiens. Put plainly: Selectivity ratio of Ki for human adenosine A2A receptor to Ki for human adenosine A3 receptor.
The next assay has as its target T2, Adenosine receptor A1 (Homo sapiens, UniProt P30542).
T2 sequence (P30542 whole entry): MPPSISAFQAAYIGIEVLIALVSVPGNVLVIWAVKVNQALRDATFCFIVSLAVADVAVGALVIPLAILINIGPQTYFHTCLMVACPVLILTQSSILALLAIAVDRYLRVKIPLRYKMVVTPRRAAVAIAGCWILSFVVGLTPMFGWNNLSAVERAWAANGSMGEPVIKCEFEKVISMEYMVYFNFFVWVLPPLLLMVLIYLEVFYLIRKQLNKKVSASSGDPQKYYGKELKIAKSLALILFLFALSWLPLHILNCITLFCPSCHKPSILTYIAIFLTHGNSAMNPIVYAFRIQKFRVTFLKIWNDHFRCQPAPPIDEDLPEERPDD
Nature of the assay: Binding affinity to human adenosine A1 receptor.

The target of another assay is Adenosine receptor A2a (Homo sapiens, UniProt P29274). Put plainly: Binding affinity to human adenosine A2A receptor.
Chain of Adenosine receptor A2a (P29274 whole entry): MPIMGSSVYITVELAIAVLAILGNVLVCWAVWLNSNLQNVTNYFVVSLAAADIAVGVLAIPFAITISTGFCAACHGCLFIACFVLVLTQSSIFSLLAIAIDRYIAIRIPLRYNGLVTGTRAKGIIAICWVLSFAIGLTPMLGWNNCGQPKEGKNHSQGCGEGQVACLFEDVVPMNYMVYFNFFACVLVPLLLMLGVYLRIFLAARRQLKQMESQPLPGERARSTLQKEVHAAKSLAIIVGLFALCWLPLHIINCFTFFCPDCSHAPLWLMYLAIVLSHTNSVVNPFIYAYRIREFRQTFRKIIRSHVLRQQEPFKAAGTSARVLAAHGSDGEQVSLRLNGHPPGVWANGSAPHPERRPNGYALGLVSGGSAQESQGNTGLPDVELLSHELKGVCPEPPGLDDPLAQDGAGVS

With `CNC(=O)[C@H]1O[C@@H](n2cnc3c(NC)nc(C#Cc4ccc(C(C)=O)cc4)nc32)[C@H](O)[C@@H]1O`, the Ki on Adenosine receptor A3 (read-out: pKi (converted)) was 0.331 nM. Further, the Ratio Ki was found to be 30900 in assay [1] and 21300 in the assay filed under Homo sapiens.
Consider `CNC(=O)[C@H]1O[C@@H](n2cnc3c(NC)nc(C#Cc4ccccn4)nc32)[C@H](O)[C@@H]1O`, for which the Ratio Ki in assay [1] was 21800; in the assay filed under Homo sapiens, 60800.
On to `CNC(=O)[C@H]1O[C@@H](n2cnc3c(NC)nc(C#Cc4ccc(F)cc4)nc32)[C@H](O)[C@@H]1O`, for which the Ratio Ki in assay [1] is 12400; in the assay filed under Homo sapiens, 29500.
Turning to `CNC(=O)[C@H]1O[C@@H](n2cnc3c(NC)nc(C#Cc4ccccc4)nc32)[C@H](O)[C@@H]1O`, the Ratio Ki in assay [1] came out at 85; in the assay filed under Homo sapiens, 115.
On to `CONc1nc(C#Cc2ccccc2)nc2c1ncn2[C@@H]1O[C@H](CO)[C@@H](O)[C@H]1O`, for which, at Adenosine receptor A3 (read-out: pKi (converted)), the Ki is 3.98 nM.
As for `CNC(=O)[C@H]1O[C@@H](n2cnc3c(N)nc(C#Cc4ccccc4)nc32)[C@H](O)[C@@H]1O`, the Ki at Adenosine receptor A1 was 3920 nM; on Adenosine receptor A3 (read-out: Ki), 7.3 nM; at Adenosine receptor A2a it was 1760 nM.
